Results published in ChEMBL document CHEMBL4732067, “Synthesis and evaluation of new compounds bearing 3-(4-aminopiperidin-1-yl)methyl magnolol scaffold as anticancer agents for the treatment of non-small cell lung cancer via targeting autophagy” (Eur J Med Chem, 2021).
Active and inactive are the calls of the source. The calls are words filed in the database; no cut-off is given here.

How the values were obtained:
[1] = system: HCC827; test: Antiproliferative activity against human HCC827 cells assessed as reduction in cell viability after 72 hrs by MTT assay; format: functional, cell-based; conditions: HCC827, 72 h
[2] = system: NCI-H1975; test: Antiproliferative activity against human NCI-H1975 cells assessed as reduction in cell viability after 72 hrs by MTT assay; format: functional, cell-based; conditions: NCI-H1975, 72 h
[3] = system: NCI-H460; test: Antiproliferative activity against human NCI-H460 cells assessed as reduction in cell viability after 72 hrs by MTT assay; format: functional, cell-based; conditions: NCI-H460, 72 h
[4] = system: NCI-H1650; test: Antiproliferative activity against human NCI-H1650 cells expressing EGFR mutant assessed as reduction in cell viability after 72 hrs by MTT assay; format: functional, cell-based; conditions: NCI-H1650, 72 h
[5] = system: NCI-H441; test: Antiproliferative activity against human NCI-H441 cells […] assessed as reduction in cell viability after 72 hrs by MTT assay; format: functional, cell-based; conditions: NCI-H441, 72 h
[6] = Metabolic stability in human liver microsomes assessed as half life; format: ADME, Microsome
[7] = Metabolic stability in human liver microsomes assessed as intrinsic clearance per gram protein; format: ADME, Microsome
[8] = system: L929; test: Cytotoxicity against mouse L929 cells; format: cell-based
[9] = Toxicity in nude BALB/c mouse xenografted with C26 cells assessed as change in body weight at 50 mg/kg, po administered once daily and measured every two days; format: organism-based; conditions: in vivo
[10] = Toxicity in nude BALB/c mouse xenografted with C26 cells assessed as abnormalities in kidney size and morphology at 50 mg/kg, po administered once daily; format: organism-based; conditions: in vivo
[11] = Toxicity in nude BALB/c mouse xenografted with C26 cells assessed as abnormalities in lung size and morphology at 50 mg/kg, po administered once daily; format: organism-based; conditions: in vivo
[12] = system: NCI-H460; test: Antitumor activity against human NCI-H460 cells xenografted in nude BABL/c mouse assessed as tumor growth inhibition at 20 mg/kg, po administered once daily and measured every two days by caliper method relative to control; format: functional; conditions: 48 h, read-out: TGI
[13] = system: NCI-H460; test: Antitumor activity against human NCI-H460 cells xenografted in nude BABL/c mouse assessed as tumor growth inhibition at 40 mg/kg, po administered once daily and measured every two days by caliper method relative to control; format: functional; conditions: 48 h, read-out: TGI
[14] = Toxicity in nude BALB/c mouse xenografted with human NCI-H460 cells assessed as abnormalities in tissue at 20 to 40 mg/kg, po administered once daily; format: organism-based; conditions: in vivo, dose 20-40 mg/kg
[15] = system: NCI-H460; test: Induction of cell cycle arrest in human NCI-H460 cells assessed as accumulation at G0/G1 phase at 0.5 uM incubated for 24 hrs by propidium iodide staining based flow cytometry (reference value: 53.97 %); format: functional
[16] = system: NCI-H460; test: Induction of cell cycle arrest in human NCI-H460 cells assessed as accumulation at G2/M phase at 0.5 uM incubated for 24 hrs by propidium iodide staining based flow cytometry (reference value: 16.71 %); format: functional
[17] = system: NCI-H460; test: Induction of cell cycle arrest in human NCI-H460 cells assessed as accumulation at S phase at 0.5 uM incubated for 24 hrs by propidium iodide staining based flow cytometry (reference value: 29.32 %); format: functional
[18] = system: NCI-H460; test: Induction of cell cycle arrest in human NCI-H460 cells assessed as accumulation at G0/G1 phase at 1 uM incubated for 24 hrs by propidium iodide staining based flow cytometry (reference value: 53.97 %); format: functional
[19] = system: NCI-H460; test: Induction of apoptosis in human NCI-H460 cells assessed as early apoptotic cells at 1 uM after 48 hrs by Annexin V-FITC/propidium iodide staining based flow cytometric analysis (reference value: 3.980 %); format: functional
[20] = system: NCI-H460; test: Induction of apoptosis in human NCI-H460 cells assessed as late apoptotic cells at 1 uM after 48 hrs by Annexin V-FITC/propidium iodide staining based flow cytometric analysis (reference value: 3.995 %); format: functional
[21] = system: NCI-H460; test: Induction of apoptosis in human NCI-H460 cells assessed as viable cells at 2 uM after 48 hrs by Annexin V-FITC/propidium iodide staining based flow cytometric analysis (reference value: 91.528 %); format: functional; conditions: read-out: Activity
[22] = system: NCI-H460; test: Induction of apoptosis in human NCI-H460 cells assessed as early apoptotic cells at 2 uM after 48 hrs by Annexin V-FITC/propidium iodide staining based flow cytometric analysis (reference value: 3.980 %); format: functional
[23] = system: NCI-H460; test: Induction of apoptosis in human NCI-H460 cells assessed as necrotic cells at 2 uM after 48 hrs by Annexin V-FITC/propidium iodide staining based flow cytometric analysis (reference value: 0.498 %); format: functional
[24] = system: NCI-H460; test: Induction of apoptosis in human NCI-H460 cells assessed as viable cells at 5 uM after 48 hrs by Annexin V-FITC/propidium iodide staining based flow cytometric analysis (reference value: 91.528 %); format: functional; conditions: read-out: Activity
[25] = system: NCI-H460; test: Induction of apoptosis in human NCI-H460 cells assessed as early apoptotic cells at 5 uM after 48 hrs by Annexin V-FITC/propidium iodide staining based flow cytometric analysis (reference value: 3.980 %); format: functional
[26] = system: NCI-H460; test: Induction of apoptosis in human NCI-H460 cells assessed as late apoptotic cells at 5 uM after 48 hrs by Annexin V-FITC/propidium iodide staining based flow cytometric analysis (reference value: 3.995 %); format: functional
[27] = system: NCI-H460; test: Induction of apoptosis in human NCI-H460 cells assessed as necrotic cells at 5 uM after 48 hrs by Annexin V-FITC/propidium iodide staining based flow cytometric analysis (reference value: 0.498 %); format: functional
[28] = system: NCI-H460; test: Induction of apoptosis in human NCI-H460 cells assessed as viable cells at 10 uM after 48 hrs by Annexin V-FITC/propidium iodide staining based flow cytometric analysis (reference value: 91.528 %); format: functional; conditions: read-out: Activity
[29] = system: NCI-H460; test: Induction of apoptosis in human NCI-H460 cells assessed as increase in cleaved caspase 3 expression level after 48 hrs by Western blot analysis; format: functional, cell-based; conditions: dose 0.5-10 µM
[30] = system: NCI-H460; test: Induction of autophagy in human NCI-H460 cells assessed as up regulation of LC3-2 protein expression after 24 hrs by Western blot analysis; format: functional, cell-based; conditions: dose 0.5-10 µM
[31] = system: NCI-H460; test: Induction of autophagy in human NCI-H460 cells assessed as up regulation of Beclin 1 protein expression after 24 hrs by Western blot analysis; format: functional, cell-based; conditions: dose 0.5-10 µM
[32] = system: NCI-H460; test: Induction of autophagy in human NCI-H460 cells assessed as degradation of SQSTM1/p62 at 0.5 to 10 uM measured after 24 hrs by Western blot analysis; format: functional, cell-based; conditions: dose 0.5-10 µM
[33] = system: NCI-H460; test: Induction of autophagy-induced cell death in human H460 cells at 0.04 to 5 uM after 24 hrs in presence of chloroquine diphosphate by MTT assay; format: functional, cell-based; conditions: dose 0.04-5 µM
[34] = system: NCI-H460; test: Antitumor activity against human NCI-H460 cells xenografted in nude BABL/c mouse assessed as tumor growth inhibition at 20 mg/kg, po administered once daily and measured every two days in presence of chloroquine diphosphate by caliper method relative to control; format: functional; conditions: 48 h, read-out: TGI
[35] = system: NCI-H460; test: Antitumor activity against human NCI-H460 cells xenografted in nude BABL/c mouse assessed as upregulation of LC3-II expression in tumor tissue at 20 mg/kg, po administered once daily in presence of chloroquine diphosphate by Western blot analysis; format: functional, organism-based

Which IC50 [1] does the source give for `C=CCc1ccc(OC(C)C)c(-c2cc(CC=C)cc(CN3CCC(N)CC3)c2O)c1` here?
The IC50 was 0.63 µM.

What about the IC50 [2] of the same compound?
Its IC50 is 0.93 µM.

What about the IC50 [3] of the same compound?
The IC50 was 0.86 µM.

And the IC50 [4]?
Its IC50 is 0.82 µM.

And the IC50 [5]?
The IC50 was 0.94 µM.

And the half-life [6]?
Its half-life is 2.62 h.

And the CLint [7]?
Its CLint is 8.8 mL/min/g.

What about the IC50 [8] of the same compound?
The IC50 was 6.24 µM.

And the Activity [9]?
The Activity was “Toxic”.

What about the Activity [10] of the same compound?
Its Activity is “Non-Toxic”.

And the Activity [11]?
Its Activity is “Non-Toxic”.

What about the inhibition in vivo at 20 mg/kg [12] of the same compound?
The inhibition in vivo at 20 mg/kg was 33.5%.

What about the inhibition in vivo at 40 mg/kg [13] of the same compound?
The inhibition in vivo at 40 mg/kg was 56.8%.

And the Activity [14]?
The Activity was “Non-Toxic”.

What about the Activity [15] of the same compound?
Its Activity is 54.79%.

And the Activity [16]?
Its Activity is 21.64%.

What about the Activity [17] of the same compound?
The Activity was 23.58%.

What about the Activity [18] of the same compound?
Its Activity is 56.47%.

And the Activity [19]?
The Activity was 4.467%.

What about the Activity [20] of the same compound?
Its Activity is 3.979%.

And the viability at 2 µM [21]?
The viability at 2 µM was 88.8%.

And the Activity [22]?
Its Activity is 5.363%.

And the Activity [23]?
The Activity was 0.874%.

What about the viability at 5 µM [24] of the same compound?
The viability at 5 µM was 53.5%.

What about the Activity [25] of the same compound?
The Activity was 30.087%.

What about the Activity [26] of the same compound?
The Activity was 15.76%.

And the Activity [27]?
Its Activity is 0.608%.

And the viability at 10 µM [28]?
The viability at 10 µM was 30%.

And the Activity [29]?
The Activity was “Dose-dependent effect”.

And the Activity [30]?
Its Activity is “Dose-dependent effect”.

And the Activity [31]?
Its Activity is “Dose-dependent effect”.

What about the Activity [32] of the same compound?
Its Activity is “Active”.

What about the Activity [33] of the same compound?
The Activity was “Active”.

What about the inhibition in vivo at 20 mg/kg [34] of the same compound?
The inhibition in vivo at 20 mg/kg was 55.9%.

And the Activity [35]?
Its Activity is “Active”.
